Measurements taken from patent US20240192195A1, “A MULTIOMIC APPROACH TO MODELING OF GENE REGULATORY NETWORKS IN MULTIPLE MYELOMA” (H. LEE MOFFITT CANCER CENTER AND RESEARCH INSTITUTE, INC., priority 2021, published 2024).

System: multiple myeloma
Assay: Clinical response to Selinexor-based regimens after anti-CD38 monoclonal antibody in the immediate prior line (STOMP, XPORT-MM-028)
Type: in vivo, human
Details: Selinexor-based regimen

O=C(/C=C\n1cnc(-c2cc(C(F)(F)F)cc(C(F)(F)F)c2)n1)NNc1cnccn1 [Selinexor]
PFS, anti-CD38 mAb in immediate prior line versus not (STOMP and XPORT-MM-028 trials): statistically significant improvement
VGPR rate, anti-CD38 mAb in immediate prior line versus not (STOMP trial (xpd and xkd arms)): higher
ORR and CBR, anti-CD38 mAb in immediate prior line versus not (XPORT-MM-028 trial (xvd)): considerably higher
